Columns and labels:
[1] = tested on: TNF-α (NF-κB pathway, THP-1 cells); experiment: TNF-α Assay (IC50); assay type: cell-based, human; settings: Homo sapiens, 600 ng/mL LPS, 3 hours
In short: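 THP-1 cells differentiated to macrophages with 25 ng/mL IFN for 24 h, plated 40,000/well in serum-free medium, preincubated with compounds 30 min at 37 °C, then stimulated with 600 ng/mL LPS for 3 h. Supernatant TNF-α measured by ELISA; IC50 from four-parameter logistic fit, 100% inhibition defined by TPCA-1.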

[2] = tested on: NLRP3 inflammasome (IL-1β production in THP-1 cells); experiment: IL-1β TR-FRET Assay (percentage of inhibition at 300 nM, 6 μM or 10 μM); assay type: cell-based, human; settings: Homo sapiens, LPS priming, ATP activation; for inhibition at 6 µM: THP-1, 6 μM, read-out: IL-1β inhibitory rate at 6 μM (%); for inhibition at 0.3 µM: THP-1, 300 nM, read-out: IL-1β inhibitory rate at 300 nM (%)
In short: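 THP-1 cells were differentiated with 25 ng/mL IFN-γ for 24 h, primed with 50 ng/mL LPS in serum-free medium for 24 h, then given compound for 30 min before 20 mM ATP for 2 h. Supernatant IL-1β was measured by HTRF after 16-24 h at room temperature. Inhibition was normalized between DMSO (high) and 3 μM MCC-950 (low).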

COCc1nc2nn(-c3c(F)cc(C4CC4)cc3CC(F)F)cc2c(=O)[nH]1 [Example 322, 2-[4-cyclopropyl-2-(2,2-difluoroethyl)-6-fluorophenyl]-6-(methoxymethyl)-2,5-dihydro-4H-pyrazolo[3,4-d]pyrimidin-4-one]
IC50 [1]: > 30 µM | inhibition at 6 µM [2]: 104%

CCCOc1nc2nn(-c3c(C)cc(C)cc3O)cc2c(=O)[nH]1 [Example 4, 2-(2-hydroxy-4,6-dimethylphenyl)-6-propoxy-2,5-dihydro-4H-pyrazolo[3,4-d]pyrimidin-4-one]
IC50 [1]: > 30 µM | inhibition at 0.3 µM [2]: 92%

Cc1nc(-c2nc3nn(-c4c(C)cc(C5CC5)cc4C)cc3c(=O)[nH]2)co1 [Example 272, 2-(4-cyclopropyl-2,6-dimethylphenyl)-6-(2-methyl-1,3-oxazol-4-yl)-2,5-dihydro-4H-pyrazolo[3,4-d]pyrimidin-4-one]
IC50 [1]: > 30 µM | inhibition at 6 µM [2]: 95%

CCOc1nc2nn(-c3c(C)cc(C4CC4)cc3C(F)F)cc2c(=O)[nH]1 [Example 216, 2-[4-cyclopropyl-2-(difluoromethyl)-6-methylphenyl]-6-ethoxy-2,5-dihydro-4H-pyrazo lo[3,4-d]pyrimidin-4-one]
IC50 [1]: > 30 µM | inhibition at 0.3 µM [2]: 104%

COC(C)c1nc2nn(-c3c(C)cc(C)cc3O)cc2c(=O)[nH]1 (stereo not shown) [Example 52, 2-(2-hydroxy-4,6-dimethylphenyl)-6-(1-methoxyethyl)-2,5-dihydro-4H-pyrazolo[3,4-d]pyrimidin-4-one]
IC50 [1]: > 30 µM | inhibition at 0.3 µM [2]: 95%

— patent publication US20260297092A1, “PYRAZOLOPYRIMIDINE DERIVATIVES AS INHIBITORS OF NLRP3” (Takeda Pharmaceutical Company Limited, priority 2023, published 2026)
